Data from patent publication US6184365A, “Anthracycline derivatives having 4-amino-2,4,6-trideoxy-2 fluoro-α-L-talopyranosyl group” (priority 1996, dated 2001).
≈ marks a conversion by molar mass, not a printed value. Entries after “also recorded” stand apart in the source; their conditions may differ. Where two headings read alike, the source gives them in different places.

Columns and labels:
[1] = earlier derivatives; cited from earlier work
[2] = earlier derivatives; comparison with daunomycin or adriamycin; cited from earlier work
[3] = test system: Leukemia L-1210 cells; assay: Antitumor activity against leukemia in CDF1 mice inoculated with Leukemia L-1210 cells; type: in vivo, mouse; settings: for Increase (%) in life-span (T/C, %): i.p., once a day for 9 days, as hydrochloride; for antitumor activity against mouse Leukemia L-1210 cell compared with adriamycin: low dosages
Method: Thus, to evaluate the antitumor effects of the novel compounds of this invention against experimental tumors in animals, CDF1 mice (four mice per group) were intraperitoneally inoculated with cells of Leukemia L-1210 at an amount of 1×10^5 cells/mouse. Since an elapse of 24 hours from the inoculation of the leukemia cells, a test compound of this invention was administered intraperitoneally to the mice under test once a day for consecutive 9 days, with the test compound being given as its hydrochloride in the form of a solution in a physiological saline. […] In the meanwhile, mice of the control group (the untreated group) were administered only with physiological saline after the inoculation of the L-1210 cells. During the observation period, the number of the surviving mice was counted for both the treated group and the control group, and the mean survival days of mice of both the treated group and the control group were calculated. Then, the percentages (%) of the increase in the life-span of the treated mice was estimated, as T/C (%), in terms of the mean survival day (C) of the untreated mice of the control group and the mean survival day (T) of the treated mice of the treated group. For comparison purposes, similar tests were effected using daunomycin (as hydrochloride) and adriamycin (as hydrochloride). The mean survival day of mice of the control group (the untreated group) was 8 to 9 days, and the mean survival day of mice of the comparative groups having received the administration of daunomycin or adriamycin usually varied dependently on the dosage of the compound tested.
Incidentally, in respect of the fractional numbers parenthesized below the numerical values of increase (%) in the life-span, the denominator of the fraction denotes the number of mice tested in one test group but the numerator of the fraction denotes the number of mice which survived for 60 days or longer.

[4] = test system: human chronic myelogenous leukemia (K562); assay: Growth inhibition of human chronic myelogenous leukemia (K562); type: cell-based; settings: for IC50: Homo sapiens
Method: (§1) Adriamycin was used as a comparative compound and was tested in the same manner as above.
(§2) The different kinds of human cancer cells tested were six kinds indicated below, including human chronic myelogenous leukemia (K562), human vaginal melanoma (HMV-1), human nasopharyngeal carcinoma (KB), human gastric adenocarcinoma (MKN-1), human lung non-small cell carcinoma (PC-14) and human bladder carcinoma (T24).

[5] = test system: human vaginal melanoma (HMV-1); assay: Growth inhibition of human vaginal melanoma (HMV-1); type: cell-based
Method: as §1, §2

[6] = test system: human nasopharyngeal carcinoma (KB); assay: Growth inhibition of human nasopharyngeal carcinoma (KB); type: cell-based
Method: as §1, §2

[7] = test system: human gastric adenocarcinoma (MKN-1); assay: Growth inhibition of human gastric adenocarcinoma (MKN-1); type: cell-based; settings: for IC50: Homo sapiens
Method: as §1, §2

[8] = test system: human lung non-small cell carcinoma (PC-14); assay: Growth inhibition of human lung non-small cell carcinoma (PC-14); type: cell-based; settings: for IC50: Homo sapiens
Method: as §1, §2

[9] = test system: human bladder carcinoma (T24); assay: Growth inhibition of human bladder carcinoma (T24); type: cell-based; settings: for IC50: Homo sapiens
Method: as §1, §2

[10] = test system: mouse leukemia P388 cells; assay: Growth inhibition of mouse leukemia P388 cells; type: cell-based
Method: as §1

[11] = test system: adriamycin-resistant P388 cells (P388/ADR); assay: Growth inhibition of adriamycin-resistant P388 cells (P388/ADR); type: cell-based, mouse; settings: for IC50: Mus musculus
Method: as §1

[12] = cited from earlier work
[13] = Solubility in water; type: physicochemical
[14] = test system: various human cancer cells; assay: in vitro tests against various human cancer cells; type: cell-based; settings: for antitumor or anticancer activity compared with adriamycin: human cancer cells as well as mouse leukemia P388 and P388/ADR cells; for anticancer activities against various human cancer cells compared with adriamycin: in vitro
Method: as §1, §2

[15] = HMV-1, 72 hours, read-out: IC50
[16] = MKN-1, 72 hours, read-out: IC50
[17] = PC-14, 72 hours, read-out: IC50

| Compound | solubility in water [1] | antitumor activity [2] | Increase (%) in life-span (T/C, %) ([3]; 0.15 mg/kg/day) | Increase (%) in life-span (T/C, %) ([3]; 0.3 mg/kg/day) | Increase (%) in life-span (T/C, %) ([3]; 0.6 mg/kg/day) | Increase (%) in life-span (T/C, %) ([3]; 1.25 mg/kg/day) | Increase (%) in life-span (T/C, %) ([3]; 2.5 mg/kg/day) | Increase (%) in life-span (T/C, %) ([3]; 5 mg/kg/day) | development of toxicity in words ([3]; 2.5 to 5 mg/kg/day) | number of mice which survived for 60 days or longer / number tested ([3]; 1.25 mg/kg/day) | antitumor activity against mouse Leukemia L-1210 cell compared with adriamycin [3] | IC50 ([4]; K562, 72 hours, read-out: IC50) | IC50 [5, 15] | IC50 ([6]; KB, 72 hours, read-out: IC50) | IC50 [7, 16] | IC50 [8, 17] | IC50 ([9]; T24, 72 hours, read-out: IC50) | IC50 ([10]; P388, 72 hours, read-out: IC50) | anticancer activity, folds higher than that of adriamycin [11] | IC50 ([11]; 72 hours, read-out: IC50) | other results |
| --- | --- | --- | --- | --- | --- | --- | --- | --- | --- | --- | --- | --- | --- | --- | --- | --- | --- | --- | --- | --- | --- |
| COc1cccc2c1C(=O)c1c(O)c3c(c(O)c1C2=O)C[C@@](O)(C(=O)CO)C[C@@H]3O[C@@H]1O[C@@H](C)[C@@H](O)[C@@H](N)[C@H]1F [7-O-(3-amino-2,3,6-trideoxy-2-fluoro-α-L-talopyranosyl)adriamycinone] | soluble in water | antitumor activity a little higher than that of the latter |  |  |  |  |  |  |  |  |  |  |  |  |  |  |  |  |  |  |  |
| COc1cccc2c1C(=O)c1c(O)c3c(c(O)c1C2=O)C[C@@](O)(C(=O)CO)C[C@@H]3O[C@H]1C[C@H](N)[C@H](O)[C@H](C)O1 [Adriamycin, reference compound] |  |  | 140% | 132% | 208% | 330% | 273% | 177% | accompanied by the development of toxicity |  |  |  |  |  |  |  |  |  |  |  | percentages of increase in the life-span (T/C, %) ([3]; 2.5 to 5 mg/kg/day): about 330%; IC50 ([4]; K562, 72 h): 0.39 µg/mL (≈ 0.718 µM); IC50 ([5]; 72 h): 0.14 µg/mL (≈ 0.258 µM); IC50 ([6]; 72 h): 0.05 µg/mL (≈ 0.092 µM); IC50 ([7]; MKN-1, 72 h): 0.25 µg/mL (≈ 0.46 µM); IC50 ([8]; PC-14, 72 h): 0.62 µg/mL (≈ 1.14 µM); IC50 ([9]; 72 h): 0.16 µg/mL (≈ 0.294 µM); IC50 ([10]; P388, 72 h): 0.032 µg/mL (≈ 0.0589 µM); IC50 ([11]; 72 h): 2.5 µg/mL (≈ 4.6 µM); side-effects ([12]; clinical treatment of cancer-bearing patients): serious side-effects such as leukocytopenia, alopecia, myocardiopathy and others |
| COc1cccc2c1C(=O)c1c(O)c3c(c(O)c1C2=O)C[C@@](O)(C(=O)CO)C[C@@H]3O[C@@H]1O[C@@H](C)[C@@H](N)[C@@H](O)[C@H]1F [Compound (b), 7-O-(4-amino-2,4,6-trideoxy-2-fluoro-α-L-talopyranosyl)adriamycinone] |  |  | 155% | > 400% | > 403% | > 330% | 139% | 92% |  | 1/4 | substantially equal to or higher than that of adriamycin | 0.063 µg/mL (≈ 0.112 µM) | 0.056 µg/mL (≈ 0.0997 µM) | 0.023 µg/mL (≈ 0.041 µM) | 0.062 µg/mL (≈ 0.11 µM) | 0.12 µg/mL (≈ 0.214 µM) | 0.026 µg/mL (≈ 0.0463 µM) | < 0.0098 µg/mL | 13.9 folds | 0.18 µg/mL (≈ 0.321 µM) | antitumor activity (T/C, %) compared with daunomycin ([3]; 0.15 mg/kg to 0.6 mg/kg): remarkably enhanced anticancer or antitumor activities; development of toxicity in words ([3]; 0.3 mg/kg to 0.6 mg/kg): did not involve the development of toxicity; also recorded: the development of toxicities is not involved; number of mice which survived for 60 days or longer / number tested ([3]; 0.3 mg/kg/day): 1/4; number of the mice surviving for 60 days (fully cured) ([3]; 0.3 mg/kg~0.6 mg/kg, pooled): two in eight; number of mice which survived for 60 days or longer / number tested ([3]; 0.6 mg/kg/day): 1/4; antitumor activity compared with adriamycin ([3]; 0.3~0.6 mg/kg, adriamycin at 0.3~0.6 mg/kg): markedly enhanced anticancer or antitumor activities; anticancer activity, folds higher than that of adriamycin ([4]; K562): 6.2 folds; anticancer activity, folds higher than that of adriamycin ([7]; MKN-1): 4 folds; anticancer activity, folds higher than that of adriamycin ([8]; PC-14): 5.2 folds; anticancer activity, folds higher than that of adriamycin ([9]; T24): 6.2 folds; solubility [13]: 15 mg/mL (≈ 26700 µM); antitumor or anticancer activity compared with adriamycin [14]: higher antitumor or anticancer activities than those of adriamycin; anticancer activities against various human cancer cells compared with adriamycin [14]: remarkably improved anticancer activities |
| COc1cccc2c1C(=O)c1c(O)c3c(c(O)c1C2=O)C[C@@](O)(C(C)=O)C[C@@H]3O[C@H]1C[C@H](N)[C@H](O)[C@H](C)O1 [Daunomycin, reference compound] |  |  | 132% | 112% | 145% | 158% | 171% | 138% | accompanied by the development of toxicity |  |  |  |  |  |  |  |  |  |  |  | side-effects ([12]; human, in vivo): serious side-effects such as leukocytopenia, alopecia, myocardiopathy and others |
| COc1cccc2c1C(=O)c1c(O)c3c(c(O)c1C2=O)C[C@@](O)(C(=O)CO)C[C@@H]3O[C@@H]1O[C@@H](C)[C@@H](O)[C@@H](O)[C@H]1F [7-O-(2,6-Dideoxy-2-fluoro-α-L-talopyranosyl)adriamycinone] | barely soluble in water | remarkable antitumor activity |  |  |  |  |  |  |  |  |  |  |  |  |  |  |  |  |  |  |  |
| COc1cccc2c1C(=O)c1c(O)c3c(c(O)c1C2=O)C[C@@](O)(C(C)=O)C[C@@H]3O[C@@H]1O[C@@H](C)[C@@H](N)[C@@H](O)[C@H]1F [Compound (a), 7-O-(4-amino-2,4,6-trideoxy-2-fluoro-α-L-talopyranosyl)daunomycinone] |  |  | 127% | 152% | 182% | > 463% | 235% | 175% |  | 2/4 | substantially equal to or higher than that of adriamycin | 0.087 µg/mL (≈ 0.159 µM) | 0.071 µg/mL (≈ 0.13 µM) | 0.028 µg/mL (≈ 0.0513 µM) | 0.12 µg/mL (≈ 0.22 µM) | 0.17 µg/mL (≈ 0.312 µM) | 0.047 µg/mL (≈ 0.0862 µM) | < 0.0098 µg/mL | 29.1 folds | 0.086 µg/mL (≈ 0.158 µM) | antitumor activity compared with daunomycin ([3]; 0.6~1.25 mg/kg): antitumor activities higher than those of daunomycin; solubility [13]: 10 mg/mL (≈ 18300 µM); antitumor or anticancer activity compared with adriamycin [14]: higher antitumor or anticancer activities than those of adriamycin; anticancer activities against various human cancer cells compared with adriamycin [14]: remarkably improved anticancer activities |
